Source: US20240139277A1, “DRUG CONTAINING ACTIVE SULFUR COMPOUND AS ITS MAIN COMPONENT” (priority 2020, published 2024)
“Also recorded” adds a separate entry of the source.

Experiments:
[1] = tested on: novel coronavirus (SARS-CoV-2); details: reported in NPL 2 and NPL 3; cited from earlier work
main protease (3CLpro) [2] = molecular target: T1, main protease (3CLpro) (Severe acute respiratory syndrome coronavirus 2, UniProt P0DTC1); details: reported in literature; cited from earlier work
[3] = molecular target: T2, papain-like protease (PLpro) (Severe acute respiratory syndrome coronavirus 2, UniProt P0DTC1); details: reported in literature; cited from earlier work
[4] = tested on: influenza virus PR8 strain (A/PR/8/34 (H1N1)); assay: anti-influenza effect in mice (influenza A virus pneumonia); assay type: in vivo, B6 mice; details: nasal administration 50 μL, 1 mM, six hours before virus inoculation; vs PBS group; FIG. 3
Protocol: An influenza virus PR8 strain (A/PR/8/34 (H1N1), Akaike T. et al, Journal of Infectious Diseases, 170, 1023-1026, 1994) (2000 pfu/ml (PBS)) was administered to each of a plurality of B6 mice (ten 8-week-old mice for each group). This administration was performed by intratracheal administration of a virus solution (PBS 40 μL) under anesthesia. Furthermore, nasal administration of GSSSG (50 μL,1 mM) was performed under anesthesia six hours before the virus inoculation and then a survival rate of the mice, their lung damage (14 days after infection), and various kinds of inflammatory cell counts (three days after infection) were measured chronologically and analyzed. A group to which the GSSSG was administered was compared with a control group (PBS-administered group/no GSSG administered) concerning the survival rate, whether there is any lung damage or not, and the various kinds of inflammatory cell counts. Regarding the lung damage, pneumonia images were evaluated by means of HE staining. Regarding the measurement of the inflammatory cell counts, bronchoalveolar lavage (BAL) was performed by using PBS and the number of cells in BAL and cytokine were analyzed.

bronchial asthma model = assay: bronchial asthma model; assay type: in vivo; details: mice
[5] = tested on: SARS-CoV-2 JPN/TY/WK-521 strain; assay: anti-SARS-CoV-2 action test in VeroE6/TMPRSS2 cells, quantitative PCR; assay type: cell-based; details: GSSSG 10 μM, 100 μM, 300 μM vs no GSSSG; MOI 0.01; FIG. 6
pulmonary fibrosis model = assay: pulmonary fibrosis model; assay type: in vivo; details: mice
[6] = tested on: porcine pancreas elastase (PPE) induced emphysema models; assay: elastase-induced COPD / emphysema model; assay type: in vivo, CARS2-deficient B6 mice
Protocol: FIG. 4 is an example indicating the therapeutic effect of the GSSSG on elastase-induced COPD; and airway administration of GSSSG (50 μL, 1 mM) to porcine pancreas elastase (PPE) induced emphysema models of CARS2-deficient B6 mice^*1 was performed three times, that is, six hours before, two days later, and four days later, and an inflammatory cell count in a bronchial alveolar lavage fluid (BALF) five days after the PPE administration was measured and emphysema lesions were analyzed by using CT. The inflammatory cell count was measured in the same manner as in the example of FIG. 3. […] 2017.

main protease (3CLpro) [7] = molecular target: T1, main protease (3CLpro); assay: SARS-CoV-2 protease inhibition test, main protease; assay type: biochemical; details: 0.3 mM, 37 degrees Celsius, 15 minutes, MCA fluorogenic substrate, compared to control (GSSSG(−)); FIG. 5
[8] = molecular target: T2, papain-like protease (PLpro); assay: SARS-CoV-2 protease inhibition test, papain-like protease; assay type: biochemical; details: 0.3 mM, 37 degrees Celsius, 15 minutes, MCA fluorogenic substrate, compared to control (GSSSG(−)); FIG. 5

SMILES: O=c1c2ccccc2[se]n1-c1ccccc1 [Ebselen, 2-Phenyl-1,2-benzoisoselenazol-3(2H)-one]
- proliferation suppression effect on SARS-CoV-2 [1]: conspicuous proliferation suppression effect
- inhibitory activity on 3CLpro as reported in NPL (main protease (3CLpro) [2]): strong inhibitory activity
- inhibitory activity on PLpro as reported in NPL [3]: strong inhibitory activity

SMILES: N[C@@H](CCC(=O)N[C@@H](CSSSC[C@H](NC(=O)CC[C@H](N)C(=O)O)C(=O)NCC(=O)O)C(=O)NCC(=O)O)C(=O)O [GSSSG, glutathione trisulfide]
- effect on influenza A virus pneumonia [4]: preventive and therapeutic effects; also recorded: improving severe pneumonia
- therapeutic effect in bronchial asthma model (bronchial asthma model): therapeutic effect of the GSSSG was also confirmed; also recorded: alleviates respiratory tract and lung damage and pulmonary fibrosis
- RNA viral load [5]: RNA viral load decreases along with an increase in the dosage
- therapeutic effect in pulmonary fibrosis model (pulmonary fibrosis model): therapeutic effect of the GSSSG was also confirmed; also recorded: alleviates respiratory tract and lung damage and pulmonary fibrosis
- inflammatory cell count in bronchial alveolar lavage fluid (BALF) ([6]; airway administration 50 μL, 1 mM, three times, five days after PPE administration, vs GSSSG(−), FIG. 4): small as compared to that of the no GSSSG-administered group
- emphysema lesions by CT ([6]; airway administration 50 μL, 1 mM, three times, vs GSSSG(−), FIG. 4): remission of the emphysema has been achieved
- therapeutic effect in COPD model ([6]; mice): therapeutic effect of the GSSSG was also confirmed; also recorded: alleviates respiratory tract and lung damage and pulmonary fibrosis
- inhibitory activity on protease activity (3CLpro) (main protease (3CLpro) [7]): same level of strong inhibitory activity
- inhibitory activity on protease activity (PLpro) [8]: same level of strong inhibitory activity
